Our source for the MIC values is DBAASP.

Some test systems named below: Candida albicans; Escherichia coli UB1005; Pseudomonas fluorescens; Ralstonia pickettii; Staphylococcus aureus; Escherichia coli; Salmonella sp.; Yersinia enterocolitica; Bacillus subtilis DELTA; Candida parapsilosis; Aeromonas salmonicida; Vibrio anguillarum.
Assay in all cases: ≥ marks a high value that may be exact or a test limit, other limits are often not marked, values filed in µg/mL are converted to µM
In test [1] the test system is Achromobacter xylosoxidans.
For test [2], the system named is Pseudomonas aeruginosa M1251.
Test [3] deals with Pseudomonas aeruginosa M1426.
The test system of test [4] is Pseudomonas aeruginosa M76.
Test [5] deals with Pseudomonas aeruginosa M917.
The subject of test [6] is Pseudomonas aeruginosa PAO1.
The test system of test [7] is Pseudomonas aeruginosa R70.
The test system of test [8] is Salmonella enterica serovar Typhimurium.
In test [9] the test system is Stenotrophomonas maltophilia.
Test [10] relates to Staphylococcus aureus ATCC 25923.
Test [11] relates to Staphylococcus aureus ATCC BAA-1683.
In test [12] the test system is Escherichia coli ATCC 25922.
Test [13] concerns Pseudomonas aeruginosa ATCC 27853.
Test [14] concerns Salmonella enterica subsp. enterica serovar Enteritidis.
The test system of test [15] is Staphylococcus aureus ATCC 29213.
Test [16] deals with Staphylococcus aureus ATCC 43300.
The subject of test [17] is Escherichia coli DH5alpha.
The subject of test [18] is Zymomonas mobilis ATCC 10988.
Test [19] has as its system Candida albicans ATCC 10231.
For test [20], the system named is Cryptococcus neoformans ATCC 32264.
In test [21] the test system is Acinetobacter baumannii ATCC 7978.
Test [22] relates to Enterococcus faecium E007.
Test [23] relates to Staphylococcus aureus ATCC 29231.
Test [24] concerns Pseudomonas aeruginosa K799.
For test [25], the system named is Pseudomonas aeruginosa Z61.
Test [26] has as its system Salmonella enterica serovar typhimurium MS7953s.
The subject of test [27] is Salmonella enterica subsp. enterica serovar Typhimurium ATCC 14028s.
For test [28], the system named is Staphylococcus epidermidis C621.

Values after ≈ are worked out from the molar mass of the structure shown.

The term MIC denotes the least concentration at which growth counts as inhibited. High values mean weaker potency, low ones greater potency. Consider `CC[C@H](C)[C@H](NC(=O)[C@H](Cc1ccccc1)NC(=O)[C@H](CO)NC(=O)[C@H](CCCCN)NC(=O)[C@H](Cc1c[nH]c2ccccc12)NC(=O)[C@@H](N)CCCCN)C(=O)N[C@@H](CCCCN)C(=O)N[C@@H](CCCCN)C(=O)N[C@@H](CC(C)C)C(=O)N[C@H](C(=O)N[C@@H](CCCCN)C(=O)N[C@@H](C)C(=O)N[C@@H](C)C(=O)N[C@@H](CCCCN)C(=O)N[C@@H](CCCCN)C(=O)N[C@H](C(=O)N[C@H](C(=O)N[C@H](C(=O)N[C@H](C(=O)N[C@@H](C)C(=O)N[C@@H](CCCCN)C(=O)N[C@@H](CCCCN)C(=O)N1CCC[C@H]1C(=O)N[C@@H](CC(C)C)C(=O)N[C@H](C(=O)N[C@H](C(N)=O)C(C)C)[C@@H](C)CC)[C@@H](C)O)[C@@H](C)O)C(C)C)C(C)C)[C@@H](C)O` [KWKSFIKKLTKAAKKVVTTAKKPLIV], for which the MIC in test [1] was 1.35 µM (≈ 4 µg/mL); against Candida albicans, over 43.3 µM; in the test on Escherichia coli UB1005, 0.677 µM (≈ 2 µg/mL); in test [2], 0.677 µM (≈ 2 µg/mL); in test [3], 1.35 µM (≈ 4 µg/mL); in test [4], 1.35 µM (≈ 4 µg/mL). The MIC in [5] was found to be 10.8 µM (≈ 32 µg/mL); in test [6], 1.35 µM (≈ 4 µg/mL); in test [7], 0.677 µM (≈ 2 µg/mL); in the test with Pseudomonas fluorescens, 0.677 µM (≈ 2 µg/mL); against Ralstonia pickettii, 0.677 µM (≈ 2 µg/mL); in [8], 1.35 µM (≈ 4 µg/mL). The minimum inhibitory concentration (MIC) against Staphylococcus aureus is over 43.3 µM; in test [9], 0.338 µM (≈ 1 µg/mL).
Take `CC(C)C[C@H](NC(=O)[C@H](CC(C)C)NC(=O)[C@H](CCCN=C(N)N)NC(=O)[C@H](CCCCN)NC(=O)[C@H](CCCCN)NC(=O)[C@@H](N)CCC(=O)O)C(=O)N[C@@H](CCCCN)C(=O)N[C@@H](Cc1c[nH]c2ccccc12)C(=O)N[C@@H](Cc1c[nH]c2ccccc12)C(=O)N[C@@H](CCCN=C(N)N)C(N)=O` [EKKRLLKWWR]: the MIC against Escherichia coli is 347 µM (≈ 500 µg/mL); in test [10] it was 86.6 µM (≈ 125 µg/mL); in [11], at least 86.6 µM.
Consider `CC[C@H](C)[C@H](NC(=O)[C@H](CCC(N)=O)NC(=O)[C@@H](N)CCCN=C(N)N)C(=O)N[C@@H](Cc1c[nH]c2ccccc12)C(=O)N[C@@H](CCCN=C(N)N)C(=O)N[C@@H](Cc1c[nH]c2ccccc12)C(=O)N[C@@H](Cc1c[nH]c2ccccc12)C(=O)N[C@@H](CCC(N)=O)C(=O)N[C@@H](Cc1c[nH]c2ccccc12)C(N)=O` [RQIWRWWQW], for which the minimal inhibitory concentration (MIC) in test [12] is over 50 µM; against Escherichia coli, over 50 µM; in test [13], over 50 µM; in test [14], at least 50 µM; against Salmonella sp. it was at least 50 µM; in test [15], over 50 µM. Also, the results for the minimal inhibitory concentration (MIC) (in test [16]; in the test on Yersinia enterocolitica) were over 50 µM and at least 50 µM, respectively.
For `CC[C@H](C)[C@H](NC(=O)[C@H](CCCN=C(N)N)NC(=O)[C@H](CCC(N)=O)NC(=O)[C@H](CC(C)C)NC(=O)[C@@H](NC(=O)[C@H](CCCN=C(N)N)NC(=O)[C@H](CCCCN)NC(=O)[C@H](Cc1ccccc1)NC(C)=O)[C@@H](C)CC)C(=O)N[C@@H](CCCCN)C(=O)N[C@@H](CC(=O)O)C(=O)N[C@@H](Cc1ccccc1)C(=O)N[C@@H](CC(C)C)C(=O)N[C@@H](CCCN=C(N)N)C(N)=O` [FKRILQRIKDFLR], the MIC in the test with Bacillus subtilis DELTA was at least 57.7 µM; against Candida parapsilosis, 23.1 µM (≈ 40.9 µg/mL); in test [17], at least 57.7 µM; in test [6], 11.5 µM (≈ 20.5 µg/mL); in [18], 28.8 µM (≈ 51.2 µg/mL).
Regarding `CC[C@H](C)[C@H](NC(=O)[C@H](CCC(N)=O)NC(=O)[C@@H](N)CCCN=C(N)N)C(=O)N[C@@H](CCCN=C(N)N)C(=O)N[C@@H](CCCN=C(N)N)C(=O)N[C@@H](Cc1c[nH]c2ccccc12)C(=O)N[C@@H](Cc1c[nH]c2ccccc12)C(=O)N[C@@H](CCC(N)=O)C(=O)N[C@@H](Cc1c[nH]c2ccccc12)C(=O)N[C@@H](CCCN=C(N)N)C(=O)N[C@@H](CCCN=C(N)N)C(N)=O` [RQIRRWWQWRR], the MIC in test [19] stood at 50 µM (≈ 86.3 µg/mL); in test [20] it was 25 µM (≈ 43.2 µg/mL).
In the case of `CC[C@H](C)[C@H](NC(=O)[C@H](CCCCN)NC(=O)[C@H](Cc1c[nH]c2ccccc12)NC(=O)[C@H](Cc1c[nH]c2ccccc12)NC(=O)[C@@H](NC(=O)[C@H](CCCCN)NC(=O)[C@H](Cc1c[nH]c2ccccc12)NC(=O)[C@@H](N)CC(C)C)[C@@H](C)CC)C(=O)N[C@@H](Cc1c[nH]c2ccccc12)C(=O)N[C@@H](CCCN=C(N)N)C(=O)N[C@H](C(=O)N[C@@H](Cc1c[nH]c2ccccc12)C(=O)N[C@@H](CCCCN)C(=O)N[C@@H](CC(N)=O)C(=O)N[C@@H](Cc1c[nH]c2ccccc12)C(=O)N[C@@H](CCCN=C(N)N)C(=O)O)C(C)C` [LWKIWWKIWRVWKNWR], the MIC in test [21] is at least 53.7 µM; in test [19] it was 26.8 µM (≈ 64 µg/mL); in test [22], at least 53.7 µM; in [23] it was 3.35 µM (≈ 7.99 µg/mL).
Regarding `CSCC[C@H](NC(=O)[C@@H](NC(=O)[C@H](CCCCN)NC(=O)[C@H](Cc1c[nH]c2ccccc12)NC(=O)[C@H](CC(C)C)NC(=O)[C@H](C)N)[C@@H](C)O)C(=O)N[C@@H](CC(C)C)C(=O)N[C@@H](CCCCN)C(=O)N[C@@H](CCCCN)C(=O)N[C@@H](C)C(=O)N[C@@H](C)C(=O)N[C@@H](Cc1cnc[nH]1)C(=O)N[C@H](C(=O)NCC(=O)N[C@@H](CCCCN)C(=O)N[C@@H](Cc1cnc[nH]1)C(=O)N[C@H](C(=O)NCC(=O)N[C@@H](CCCCN)C(=O)N[C@@H](C)C(=O)N[C@@H](C)C(=O)N[C@@H](CC(C)C)C(=O)N[C@H](C(=O)N[C@@H](Cc1cnc[nH]1)C(=O)N[C@@H](Cc1ccc(O)cc1)C(=O)N[C@@H](CC(C)C)C(=O)N[C@@H](CC(N)=O)C(=O)O)[C@@H](C)O)C(C)C)C(C)C` [ALWKTMLKKAAHVGKHVGKAALTHYLN], the MIC was 0.335 µM (≈ 1 µg/mL) in the test with Aeromonas salmonicida; 1.34 µM (≈ 4 µg/mL) in [24]; 2.68 µM (≈ 8 µg/mL) in [25]; 0.167 µM (≈ 0.5 µg/mL) in [26]; 1.34 µM (≈ 4 µg/mL) in [27]; 1.34 µM (≈ 4 µg/mL) in test [28]. For the same molecule, the MIC with Vibrio anguillarum stood at 1.34 µM (≈ 4 µg/mL).
